US20140308733A1, “METHOD FOR INDUCING GERMINATION OF SPORE FORMING BACTERIUM” (CALPIS CO., LTD., priority 2011, published 2014)

Key:
Test in all cases: Germination induction, change of turbidity (630 nm) of spore suspension
Format in all cases: cell-based
Details in all cases: 300 ppm, 37° C., 150 rpm
[1] = test system: Bacillus licheniformis (NBRC 14206)
Description: (§1) It is possible to determine whether spores have germinated, after measuring an OD 630 value (turbidity at 630 nm) of the liquid culture, based on decrease in the value (Literature: Microbiology, (1950), 4, 3, 330-338). Briefly, bacterial cells after culturing are washed with distilled water and diluted with distilled water to OD 630=1.0, which is then mixed with an equal volume of a germination induction solution, and the turbidity at 630 nm is measured by a UV spectrophotometer at room temperature.
(§2) TS culture media (Difco, Trypticase Soy Broth) were inoculated respectively with 11 strains listed in Table 1 and cultured at 50° C. with respect to Geobacillus stearothermophilus NBRC13737 and Aeribacillus pallidus TK6004 (FERM BP-08597), and at 37° C. with respect to the other 9 strains, until respective colonies were established. Then with respect to each of 11 strains, a loop full of a single colony was scratched by a platinum loop and suspended in 500 μL of sterilized water. In 1000 g of water was dissolved 8.0 g of a nutrient agar culture medium (Difco, Nutrient Broth), followed by high pressure steam sterilization (121° C., 15 min) to prepare a plate medium. The nutrient agar culture medium was smeared with each 100 μL of the suspension and cultured at 37° C. for 3 days.
(§3) Then, bacterial cells were suspended using a platinum loop in 500 μL of sterilized water, and the bacterial suspension was subjected to a heat shock at 65° C. for 35 min. Each 100 μL of the heat-shocked bacterial suspension and a not-heat-shocked bacterial suspension were smeared on the TS culture media respectively and cultured at 50° C. or 37° C. for 1 day.
(§4) After confirming the spore formation, the bacterial cells were collected by a bacteria spreader, suspended in 10 mL of sterilized distilled water, and then centrifuged (8340×g, 4° C., 15 min). The supernatant was removed and thereafter the bacterial cells were washed twice with 10 mL of sterilized water. After washing, the bacterial cells were suspended in 5 mL of sterilized water, and the suspension was filtrated by sterilized Kimwipes. The filtrate was centrifuged (8340×g, 4° C., 15 min) to remove the supernatant, and the rest was adjusted to the turbidity (at 630 nm) of 1.0 with sterilized water.
(§5) After dissolving with stirring using a stirring rod with a propeller, filtration sterilization (0.45 μm filter) was conducted to prepare each 600 ppm-solution.
(§6) Five hundred (500) μL of each solution and 500 μL of each bacterial spore suspension were mixed. […] Defining the time point of mixing as the reaction initiation (0 min), and continuing shaking (150 rpm) at 37° C., the turbidity (630 nm) was measured at 10, 20, 30, 40, 50, 60, 90, 120, and 180 min after the reaction initiation.
(§7) Since the turbidity at 630 nm decreases by germination of spores, it has been known that the turbidity at 630 nm can be used to determine the germination rate.

[2] = test system: Bacillus amyloliquefaciens (NBRC 3032)
Description: as §1, §2
as §3, with “day. As the results of the cultures, colony formation was confirmed also with respect to the heat-shocked bacterial suspensions, to confirm that spores were formed for all of 11 strains. Further, since the bacteria were not stained by Gram staining, it was reconfirmed that spores were formed.” for “day.”
as §4, §5, §6, §7

[3] = test system: Bacillus coagulans (NBRC 12583)
Description: as §1, §2
as §3, with “day. As the results of the cultures, colony formation was confirmed also with respect to the heat-shocked bacterial suspensions, to confirm that spores were formed for all of 11 strains. Further, since the bacteria were not stained by Gram staining, it was reconfirmed that spores were formed.” for “day.”
as §4, §5, §6, §7

[4] = test system: Bacillus licheniformis (NBRC 12195)
Description: as §1, §2
as §3, with “day. As the results of the cultures, colony formation was confirmed also with respect to the heat-shocked bacterial suspensions, to confirm that spores were formed for all of 11 strains. Further, since the bacteria were not stained by Gram staining, it was reconfirmed that spores were formed.” for “day.”
as §4, §5, §6, §7

[5] = test system: Bacillus amyloliquefaciens (NBRC 3022)
Description: as §1, §2
as §3, with “day. As the results of the cultures, colony formation was confirmed also with respect to the heat-shocked bacterial suspensions, to confirm that spores were formed for all of 11 strains. Further, since the bacteria were not stained by Gram staining, it was reconfirmed that spores were formed.” for “day.”
as §4, §5, §6, §7

[6] = test system: Geobacillus stearothermophilus (NBRC 13737)
Description: as §1, §2
as §3, with “day. As the results of the cultures, colony formation was confirmed also with respect to the heat-shocked bacterial suspensions, to confirm that spores were formed for all of 11 strains. Further, since the bacteria were not stained by Gram staining, it was reconfirmed that spores were formed.” for “day.”
as §4, §5, §6, §7

[7] = test system: Bacillus subtilis C-3102 (FERM BP-1096)
Description: as §1, §2
as §3, with “day. As the results of the cultures, colony formation was confirmed also with respect to the heat-shocked bacterial suspensions, to confirm that spores were formed for all of 11 strains. Further, since the bacteria were not stained by Gram staining, it was reconfirmed that spores were formed.” for “day.”
as §4, §5, §6, §7

[8] = test system: Bacillus coagulans (NBRC 3887)
Description: as §1, §2
as §3, with “day. As the results of the cultures, colony formation was confirmed also with respect to the heat-shocked bacterial suspensions, to confirm that spores were formed for all of 11 strains. Further, since the bacteria were not stained by Gram staining, it was reconfirmed that spores were formed.” for “day.”
as §4, §5, §6, §7

[9] = test system: Bacillus subtilis sp spizizenii (NBRC 101239)
Description: as §1, §2
as §3, with “day. As the results of the cultures, colony formation was confirmed also with respect to the heat-shocked bacterial suspensions, to confirm that spores were formed for all of 11 strains. Further, since the bacteria were not stained by Gram staining, it was reconfirmed that spores were formed.” for “day.”
as §4, §5, §6, §7

[10] = test system: Aeribacillus pallidus TK6004 (FERM BP-08597)
Description: as §1, §2
as §3, with “day. As the results of the cultures, colony formation was confirmed also with respect to the heat-shocked bacterial suspensions, to confirm that spores were formed for all of 11 strains. Further, since the bacteria were not stained by Gram staining, it was reconfirmed that spores were formed.” for “day.”
as §4, §5, §6, §7

[11] = 20 min after reaction initiation
[12] = 30 min after reaction initiation
[13] = 40 min after reaction initiation
[14] = 50 min after reaction initiation
[15] = 60 min after reaction initiation
[16] = 90 min after reaction initiation
[17] = 120 min after reaction initiation
[18] = 180 min after reaction initiation
[19] = 0 min after reaction initiation
[20] = 10 min after reaction initiation

C[C@H](N)C(=O)O [L-Ala, L-alanine, reference compound]
turbidity (630 nm) [1, 11]: 0.535
turbidity (630 nm) [1, 12]: 0.502
turbidity (630 nm) [1, 13]: 0.490
turbidity (630 nm) [1, 14]: 0.482
turbidity (630 nm) [1, 15]: 0.477
turbidity (630 nm) [1, 16]: 0.470
turbidity (630 nm) [1, 17]: 0.465
turbidity (630 nm) [1, 18]: 0.468
turbidity (630 nm) [2, 19]: 0.517
turbidity (630 nm) [2, 20]: 0.418
turbidity (630 nm) [2, 11]: 0.362
turbidity (630 nm) [2, 12]: 0.347
turbidity (630 nm) [2, 13]: 0.333
turbidity (630 nm) [2, 14]: 0.315
turbidity (630 nm) [2, 15]: 0.32
turbidity (630 nm) [2, 16]: 0.298
turbidity (630 nm) [2, 17]: 0.290
turbidity (630 nm) [2, 18]: 0.274
turbidity (630 nm) [3, 19]: 0.564
turbidity (630 nm) [3, 20]: 0.559
turbidity (630 nm) [3, 11]: 0.545
turbidity (630 nm) [3, 12]: 0.515
turbidity (630 nm) [3, 13]: 0.502
turbidity (630 nm) [3, 14]: 0.498
turbidity (630 nm) [3, 15]: 0.510
turbidity (630 nm) [3, 16]: 0.510
turbidity (630 nm) [3, 17]: 0.507
turbidity (630 nm) [3, 18]: 0.491
turbidity (630 nm) [4, 19]: 0.534
turbidity (630 nm) [4, 20]: 0.526
turbidity (630 nm) [4, 11]: 0.517
turbidity (630 nm) [4, 12]: 0.510
turbidity (630 nm) [4, 13]: 0.508
turbidity (630 nm) [4, 14]: 0.503
turbidity (630 nm) [4, 15]: 0.503
turbidity (630 nm) [4, 16]: 0.493
turbidity (630 nm) [4, 17]: 0.492
turbidity (630 nm) [4, 18]: 0.498
turbidity (630 nm) [5, 19]: 0.565
turbidity (630 nm) [5, 20]: 0.505
turbidity (630 nm) [5, 11]: 0.506
turbidity (630 nm) [5, 12]: 0.461
turbidity (630 nm) [5, 13]: 0.495
turbidity (630 nm) [5, 14]: 0.504
turbidity (630 nm) [5, 15]: 0.506
turbidity (630 nm) [5, 16]: 0.490
turbidity (630 nm) [5, 17]: 0.505
turbidity (630 nm) [5, 18]: 0.493
turbidity (630 nm) [6, 19]: 0.577
turbidity (630 nm) [6, 20]: 0.573
turbidity (630 nm) [6, 11]: 0.566
turbidity (630 nm) [6, 12]: 0.565
turbidity (630 nm) [6, 13]: 0.568
turbidity (630 nm) [6, 14]: 0.561
turbidity (630 nm) [6, 15]: 0.568
turbidity (630 nm) [6, 16]: 0.565
turbidity (630 nm) [6, 17]: 0.553
turbidity (630 nm) [6, 18]: 0.538
turbidity (630 nm) [7, 19]: 0.606
turbidity (630 nm) [7, 20]: 0.607
turbidity (630 nm) [7, 11]: 0.597
turbidity (630 nm) [7, 12]: 0.597
turbidity (630 nm) [7, 13]: 0.594
turbidity (630 nm) [7, 14]: 0.590
turbidity (630 nm) [7, 15]: 0.582
turbidity (630 nm) [7, 16]: 0.584
turbidity (630 nm) [7, 17]: 0.574
turbidity (630 nm) [7, 18]: 0.578
turbidity (630 nm) [8, 19]: 0.510
turbidity (630 nm) [8, 20]: 0.508
turbidity (630 nm) [8, 11]: 0.470
turbidity (630 nm) [8, 12]: 0.515
turbidity (630 nm) [8, 13]: 0.488
turbidity (630 nm) [8, 14]: 0.500
turbidity (630 nm) [8, 15]: 0.500
turbidity (630 nm) [8, 16]: 0.472
turbidity (630 nm) [8, 17]: 0.500
turbidity (630 nm) [8, 18]: 0.490
turbidity (630 nm) [9, 19]: 0.527
turbidity (630 nm) [9, 20]: 0.520
turbidity (630 nm) [9, 11]: 0.514
turbidity (630 nm) [9, 12]: 0.501
turbidity (630 nm) [9, 13]: 0.488
turbidity (630 nm) [9, 14]: 0.475
turbidity (630 nm) [9, 15]: 0.455
turbidity (630 nm) [9, 16]: 0.409
turbidity (630 nm) [9, 17]: 0.387
turbidity (630 nm) [9, 18]: 0.366
turbidity (630 nm) [10, 19]: 0.488
turbidity (630 nm) [10, 20]: 0.470
turbidity (630 nm) [10, 11]: 0.463
turbidity (630 nm) [10, 12]: 0.457
turbidity (630 nm) [10, 13]: 0.451
turbidity (630 nm) [10, 14]: 0.445
turbidity (630 nm) [10, 15]: 0.441
turbidity (630 nm) [10, 16]: 0.416
turbidity (630 nm) [10, 17]: 0.404
turbidity (630 nm) [10, 18]: 0.370
